Values quoted from earlier work in patent US12357549B2, “Method for dyeing keratinous material, comprising the use of an organosilicon compound, a dyeing compound, a sealing reagent, and a pre-treatment agent” (Henkel AG & Co. KGaA, priority 2021, dated 2025).

Details: 25° C.

Row | solubility in water | Compound | other results
1 |  | CCN(Cc1cccc(S(=O)(=O)[O-])c1)c1ccc(C(=C2C=CC(=[N+](CC)Cc3cccc(S(=O)(=O)[O-])c3)C=C2)c2ccccc2S(=O)(=O)[O-])cc1.[Na+].[Na+] [Acid Blue 9] | water solubility: more than 20 wt %
2 | more than 7 g/L | O=S(=O)([O-])c1ccc(N=Nc2c(O)ccc3ccccc23)cc1.[Na+] [Acid Orange 7, sodium salt of 4-[(2-hydroxy-1-naphthyl)azo]benzenesulfonate] | 
3 | 2500 µg/mL | Nc1cc(S(=O)(=O)[O-])cc2cc(S(=O)(=O)[O-])c(N=Nc3ccccc3)c(O)c12.[Na+].[Na+] [Acid Red 33, disodium salt of 5-amino-4-hydroxy-3-(phenylazo)-naphthalene-2,7-disulfonate] | 
4 |  | O=C([O-])C1=NN(c2ccc(S(=O)(=O)[O-])cc2)C(=O)C1N=Nc1ccc(S(=O)(=O)[O-])cc1.[Na+].[Na+].[Na+] (centres unmarked) [Acid Yellow 23, trisodium salt of 4,5-dihydro-5-oxo-1-(4-sulfophenyl)-4-((4-sulfophenyl)azo)-1H-pyrazole-3-carboxylic acid] | solubility in water (in words): readily soluble in water

Row | Compound | solubility in water | other results
5 | O=C([O-])c1c(Cl)c(Cl)c(Cl)c(Cl)c1-c1c2c(Br)cc(=O)c(Br)c-2oc2c(Br)c(O)cc(Br)c12.O=C([O-])c1c(Cl)c(Cl)c(Cl)c(Cl)c1-c1c2c(Br)cc(=O)c(Br)c-2oc2c(Br)c(O)cc(Br)c12.[Na+].[Na+] [Acid Red 92, disodium salt of 3,4,5,6-tetrachloro-2-(1,4,5,8-tetrabromo-6-hydroxy-3-oxoxanthen-9-yl)benzoic acid] | greater than 10 g/L | 
